# Results as given in publication PMC5352051, “Identification of a novel Polo-like kinase 1 inhibitor that specifically blocks the functions of Polo-Box domain” (Oncotarget, 2016).
# How the values were obtained:
# [1] = target: T1, Plk1-Bub1 interaction (Homo sapiens, UniProt P53350); test: Co-immunoprecipitation (IP) assay in HeLa cells; format: cell-based; conditions: HeLa cells released from double-thymidine arrest, 5, 10, 15 μM, 10 hrs
# T1 construct: endogenous in cells; host or cells: HeLa
# T1 sequence (P53350 2-603 limits assumed): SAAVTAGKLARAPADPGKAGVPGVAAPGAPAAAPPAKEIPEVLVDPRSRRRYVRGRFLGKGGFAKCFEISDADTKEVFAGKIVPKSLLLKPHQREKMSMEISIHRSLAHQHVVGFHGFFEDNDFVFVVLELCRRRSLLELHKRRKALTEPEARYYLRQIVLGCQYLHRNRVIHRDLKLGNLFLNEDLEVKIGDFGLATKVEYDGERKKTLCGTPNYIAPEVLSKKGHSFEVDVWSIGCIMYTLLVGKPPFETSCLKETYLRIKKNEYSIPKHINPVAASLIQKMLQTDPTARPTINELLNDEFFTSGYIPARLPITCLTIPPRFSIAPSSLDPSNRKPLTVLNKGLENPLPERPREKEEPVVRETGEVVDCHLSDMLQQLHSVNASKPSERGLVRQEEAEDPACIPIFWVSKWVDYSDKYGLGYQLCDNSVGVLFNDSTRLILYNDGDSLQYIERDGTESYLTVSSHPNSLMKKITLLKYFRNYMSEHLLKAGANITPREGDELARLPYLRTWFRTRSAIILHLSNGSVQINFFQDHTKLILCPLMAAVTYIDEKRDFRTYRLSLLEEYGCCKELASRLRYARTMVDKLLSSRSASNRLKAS
# Protocol: HeLa cells were synchronized in G1/S boundary by double-thymidine block as described, and then released into medium containing DMSO and T521 (5, 10, 15 μM) for 10 hrs. For Co-IP assay, rabbit polyclonal anti-Bub1 antibody (Cat# ab70372; Abcam) was coupled to Protein A-Agarose beads (Cat# sc-2001; Santa Cruz) at a concentration 100 μg/mL. Treated HeLa cells were lysed with RIPA buffer. After clearing by centrifugation, the lysate was incubated with the beads coupled to anti-Bub1 antibody for 2 hrs at 4°C. The beads were washed with the lysis buffer for three times. The proteins bound to the beads were dissolved in loading buffer and separated by 10% SDS-PAGE, and probed with the mouse monoclonal anti-hPlk1 antibody (Cat# P5998; Sigma; 1:3000) and rabbit polyclonal anti-Bub1 antibody (Cat# ab70372;Abcam; 1:2000), respectively.
# [2] = tested on: HeLa cells; test: Cell cycle analysis by flow cytometry (DNA content); format: cell-based, human; conditions: synchronized HeLa, 10 μM
# Protocol: HeLa cells (1.0×10^5 cells/well) were synchronized at G1/S boundary by double-thymidine block and then released into various media with indicated reagents. For cell cycle analysis, HeLa cells were harvested at different time points, washed twice with PBS, fixed in ice-cold 70% ethanol for 30 min at 4°C, and incubated with 500 μL of Propidium Iodine (Sigma; 10 μg/mL) and RNase A (Sigma; 1 mg/mL) for 30 min at 37°C in the dark prior to flow cytometry analysis (FACScan, BD Biosciences).
# [3] = tested on: HeLa cells; test: Apoptosis assay, Annexin V/PI dual-staining; format: cell-based, human; conditions: exponentially growing HeLa, various concentrations, 24 hrs, vs DMSO
# Protocol: For apoptosis assay, HeLa cells were seeded at 3.0×10^4 cells/well into 6-well plates and incubated overnight. Then exponentially growing HeLa cells were treated with T521 at the indicated concentrations for 24 hrs and Annexin V/PI dual-staining was carried out using a commercial apoptosis assay kit (Beijing 4A Biotech. Co., Ltd.). DMSO-treated cells were taken as control.
# [4] = target: T2, Plk1 PBD (Homo sapiens, UniProt P53350); test: Circular dichroism spectroscopy; conditions: complex with T521
# T2 construct: (326-603 aa), Plk2 (355-685 aa), and Plk3 (335-646 aa); 6xHis (N); 6xHis (C); made in house; host or cells: E. coli Rosetta BL21(DE3)
# T2 sequence (P53350 326-603): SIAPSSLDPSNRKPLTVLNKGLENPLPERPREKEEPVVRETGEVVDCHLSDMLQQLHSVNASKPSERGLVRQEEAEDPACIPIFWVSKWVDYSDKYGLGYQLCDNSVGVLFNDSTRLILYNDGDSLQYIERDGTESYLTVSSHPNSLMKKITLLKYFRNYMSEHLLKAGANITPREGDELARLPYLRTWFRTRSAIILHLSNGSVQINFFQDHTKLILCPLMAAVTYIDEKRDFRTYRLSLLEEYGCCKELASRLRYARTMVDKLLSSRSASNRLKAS
# Protocol: PAGE, and then the stained band was excised from The raw data was processed using Proteome the polyacrylamide gel, washed twice with water, and Discoverer software (Thermo Fischer). MS2 spectra destained with 40% ACN/50 mM NH4HCO3. The gel were searched with SEQUEST engine against target Plk1 pieces were dehydrated with 100% ACN and dried for protein and common pollution proteins database (246 5 min using a speedvac. Disulfide bonds were reduced Protein Sequences). Database searches were performed by treatment with DTT (10 mM, 56°C, 45 min), and the with the following parameters: precursor mass tolerance free sulfhydryl groups were alkylated with iodoacetamide 20 ppm; MS/MS mass tolerance 0.6 Da; two missed (55 mM, 25°C, 60 min in the dark). After drying with cleavage for tryptic peptides; variable modifications a speedvac, the gel was rehydrated using 100 ng/μL oxidation (M), T521 fragment modification (+301.02) trypsin (50 mM NH4HCO3, pH8.3) on ice for 30 min, (K, R), fixed modification Carbamidomethyl (C), the and the digestion was carried out at 37°C for 60 min and results were filtered for a 1% false discovery rate (FDR) then quenched with 1.0% FA. The tryptic peptides were at the PSM level utilizing the percolator-based algorithm. extracted twice with 60% ACN containing 0.1% FA, and Peptide identifications were grouped into proteins then the combined digest solution was concentrated to 25 according to the law of parsimony. […]
# B; 90–91 min, 80%–4% B; 91–100 min, 4% B. Eluting the calculation of mean residue ellipticity. […] Three MS spectra were acquired from m/z 300 to m/z 1,800, and independent experiments were performed for each sample. the 10 most intense ions with charges more than 2 and Spectral deconvolution of CD data was performed using above an intensity threshold 500 were fragmented in the CDNN to determine relative quantities of α-helix, linear ion trap using normalized collision energy of 35%. β-sheet, β-turn and random coil. […]
smiles,measurement,setting,value
"CCS(=O)(=O)c1oc(-c2ccc(F)cc2)nc1S(=O)(=O)c1ccccc1 [T521, 5-(ethylsulfonyl)-2-(4-fluorophenyl)-4-(phenylsulfonyl) oxazole]",Plk1 protein level in Bub1 immunoprecipitates,[1],clear decrease
same,cells with 4C DNA content,[2]; 16 hrs after release,about 40%
same,cells remaining in G2/M phase,[2]; entire course (24 hrs),At least 20%
same,cell population positive for Annexin V staining,[3],increase of cell population positive for Annexin V staining
same,β-turn composition of Plk1 PBD complex,[4]; native Plk1 PBD 21.08%,29.59%
same,α-helix composition of Plk1 PBD complex,[4]; native Plk1 PBD 26.18%,11.63%
same,random coil composition of Plk1 PBD complex,[4]; native Plk1 PBD 34.80%,41.46%
